The target in test [1] is T1, mPGES-1 (Homo sapiens, UniProt O14684).
T1 construct: endogenous in cells; host or cells: A549 cells stimulated with IL-1β; microsomal fraction
T1 sequence (O14684 1-152): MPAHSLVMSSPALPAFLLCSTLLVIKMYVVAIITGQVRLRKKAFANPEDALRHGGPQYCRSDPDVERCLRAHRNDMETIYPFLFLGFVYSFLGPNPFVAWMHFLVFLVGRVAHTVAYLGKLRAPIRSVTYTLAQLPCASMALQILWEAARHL
The experiment in a line: Cell-free mPGES-1 activity assay (PGE2 biosynthesis). Format: biochemical. The conditions noted are these: for remaining activity at 10 µM: percentage of control (100%), read-out: mPGES-1 residual activity at 10 μM (%); for IC50: n = 3, read-out: IC50 value ± SEM (mPGES-1, cell-free). An excerpt: (Table 1). […] From the structural point of view, the biological affinities of compounds 3 and 7 (Figure 2A and C) could be positively affected by the 2-bromobenzoyl substituent able to accommodate in a deep binding pocket on the mPGES-1 surface. This moiety interacts by van der Waals contacts with amino acids of the cytoplasmic part and establishes π-stacking with Phe44ChainC and His53ChainC hydrogen bonds with Ser127, and a halogen bond between the bromine atom and the side chain of Aps49ChainC. Furthermore, the 3-phenylphenol and 2-aminobiphenyl moieties of 3 and 7 (Figure 2A and C), respectively, are able to establish a peculiar π-stacking with Tyr130ChainA and a hydrogen bond with Gln134ChainA. […]
mM glutathione, and 250 mM sucrose) and the protein concentration was defined. Potassium phosphate buffer (0.1 M, pH = 7.4) plus glutathione (2.5 mM) was added to dilute microsomes, which were then seeded in a 96-well plate. […]
preincubated for 15 min on ice. MK886 (10 µM) and MD-52 (1 µM) were used as reference drugs.
The reactions started by adding 20 µM of PGH2, and 1 min later, 100 µl of a solution containing FeCl3 (40 mM), citric acid (80 mM), and 11β-PGE 2 (10 µM) were added for stopping the conversion of PGH2. After the extraction of PGE2 and 11β-PGE 2 (internal stardard) by solid-phase extraction, […]

Test [2] has as its target T2, COX-2 (Homo sapiens, UniProt P35354).
T2 sequence (P35354 18-604): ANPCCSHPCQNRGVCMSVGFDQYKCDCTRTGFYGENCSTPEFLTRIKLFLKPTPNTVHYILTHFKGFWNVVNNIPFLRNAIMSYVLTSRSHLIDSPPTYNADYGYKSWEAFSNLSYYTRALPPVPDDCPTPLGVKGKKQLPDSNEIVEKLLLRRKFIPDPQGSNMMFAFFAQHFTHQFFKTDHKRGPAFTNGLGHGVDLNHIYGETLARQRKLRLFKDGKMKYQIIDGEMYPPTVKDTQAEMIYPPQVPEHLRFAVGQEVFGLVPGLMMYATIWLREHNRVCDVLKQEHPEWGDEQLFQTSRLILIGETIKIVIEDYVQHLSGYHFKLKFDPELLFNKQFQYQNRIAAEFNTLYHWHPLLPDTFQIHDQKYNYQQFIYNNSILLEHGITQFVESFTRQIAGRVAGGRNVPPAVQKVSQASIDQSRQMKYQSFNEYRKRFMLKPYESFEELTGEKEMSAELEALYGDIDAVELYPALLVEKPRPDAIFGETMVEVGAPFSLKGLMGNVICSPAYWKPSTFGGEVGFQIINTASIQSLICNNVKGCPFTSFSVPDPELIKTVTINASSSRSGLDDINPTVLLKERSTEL
The experiment in a line: Cell-free COXs activity assay, COX-2. Format: biochemical. The conditions noted are these: percentage of uninhibited control (100%), n = 3, n.i.: no inhibitory activity observed, read-out: COX-2 residual activity (%). As to the method:
Cell-free COXs activity assay
Isolated COX-1 (ovine) and COX-2 (human) were used for the evaluation of the activity of test compounds 3, 6, 7, and 9 on cyclooxygenases. COXs were diluted using Tris buffer (100 mM, pH = […]
8) plus 5 mM glutathione, 100 µM EDTA and 5 µM hemoglobin) to a final concentration of 50 U/mL for COX-1 and 20 U/mL for COX-2, and pre-incubated with test compounds 3, 6, 7, and 9 (10 µM) or vehicle (0.1% DMSO) over 5 min at rt. After 1 min at 37 °C, reactions were started after addition of arachidonic acid to a final concentration of 5 µM for COX-1 and 2 µM for COX-2. After 5 min at 37 °C, 1 mL of ice-cold methanol was added for stopping the reactions on ice. Then, PGB 1 as internal standard and 530 µl PBS plus HCl were added, and solid-phase extraction was performed as reported before.4-6, 17-19 COXs product formation (12-HHT) was determined using RP-HPLC. 4-6, 17-19 Indomethacin (10 µM) and celecoxib (5 µM) were used as reference drugs.
Expression, purification and activity assay of human recombinant sEH
Human recombinant sEH was expressed in Sf9 cells and was infected using a baculovirus, provided by Dr. B. Hammock, University of California, Davis, CA. After 72 hours, cells were pelleted and sonicated (3 × 10 sec) at 4 °C in lysis buffer (50 mM NaHPO 4, pH = 8, 300 mM NaCl, 10% glycerol, 1 mM EDTA, 1 mM phenylmethanesulfonyl fluoride, 10 µg/mL of leupeptin, and 60 µg/mL of soybean trypsin inhibitor). Lysates were centrifuged over 60 min at 4 °C (100,000 × g), and supernatants were collected and submitted to a benzylthio-sepharose-affinity chromatography for sEH purification by elution with 4-fluorochalcone oxide in PBS plus 1 mM DTT and 1 mM EDTA.720 […]
DMSO) for 15 min at rt. 50 µM 3-phenyl-cyano(6-methoxy-2-naphthalenyl)methyl ester-2-oxiraneacetic acid (PHOME), a non-fluorescent compound, was added for starting the reaction.
PHOME is enzymatically converted into a fluorescent compound, 6-methoxy-naphtaldehyde, detectable by using a spectrofluorometer setting λ em = 465 nm, λ ex = 330 nm. After 60 min, ZnSO 4

For the compound `O=C(Nc1nnc(-c2ccc(-c3cccc(O)c3)cc2)s1)c1ccccc1Br` [compound 3], in test [1], the remaining activity at 10 µM turned out to be 8.4% and the concentration for half-maximal inhibition (IC50) (as a rule, the point on the concentration scale where inhibition reaches its midpoint) worked out at 200 nM. In test [2], the remaining activity at 10 µM was 65.4%.
On the same counts, the results for `Cc1cc(C(=O)Nc2nnc(-c3ccc(-c4ccccc4N)cc3)s2)cc(Cl)n1` [compound 6] are 31.7%, 3100 ± 600 nM and 83.1%.
For `Nc1ccccc1-c1ccc(-c2nnc(NC(=O)c3ccccc3Br)s2)cc1` [compound 7] the same measures were 16.7%, 150 nM and 194%.
For `Nc1ccccc1-c1ccc(-c2nnc(NC(=O)c3c(Cl)ccnc3Cl)s2)cc1` [compound 9] the same measures were 20.9%, 1700 ± 300 nM and 72.7%.

The values are drawn from publication PMC9841589, “Identification of 2-Aminoacyl-1,3,4-thiadiazoles as Prostaglandin E2 and Leukotriene Biosynthesis Inhibitors” (ACS Medicinal Chemistry Letters, 2022).
